# From US5334707A, “Use of acyl phosphate esters in the modification of hemoglobin” (priority 1992, dated 1994)
# “Also recorded” adds a separate entry of the source.
# Experiments:
# human hemoglobin [1] = assay: Inter-subunit cross-linking of hemoglobin by SDS-polyacrylamide gel electrophoresis; type: biochemical; settings: 0.3 mM hemoglobin, pH 7.4, 37° C., four hours
# Experimental: Solutions (2 mL) of 4,4'stilbene dicarboxylic acid bis(methyl phosphate) at concentrations of 0.3 mM, 3.0 mM, 30 mM, and 300 mM were prepared in 0.100M tris-HCL buffer pH 7.4. A control solution containing only the buffer was prepared. To each of these freshly prepared solutions, 40 mg of human hemoglobin (Sigma Chemical Company) was added so that the resulting solution was 0.3 mM in hemoglobin. The reaction mixtures were than stirred vigorously and incubated at 37° C. After four hours the solutions were dialyzed against 0.100M sodium phosphate buffer, pH 7.0, for 20 hours at 4° C. to remove the unreacted acyl phosphates. The samples were then lyophilized and analyzed by SDS-polyacrylamide gel electrophoresis to assess the extent of intersubunit cross-linking (Weber, K; Osborn, M.; J. Biol. Chem. 1969, 244, 4406). Prior to electrophoresis, the hemoglobin samples, cross-linked bovine hemoglobin standard (Sigma Dalton Mark VII-L doubly crystallized, dialyzed, lyophilized), and molecular weight standards were denatured by boiling for 15 min. in 0.11M sodium phosphate buffer, pH 7.0, which contained 1% sodium dodecyl sulfate, 1% 2-mercaptoethanol, 36% urea, and 0.015% bromphenol blue. The final protein concentrations were 2 mg/mL and 10 to 20 μL aliquots were loaded on the gel. The process was conducted using a Bio-Rad Mini-Protean II dual slab cell apparatus. The extent of cross-linking of the hemoglobin could be estimated by visual comparison of the resolved electrophoretic bands after fixation followed by staining with Coomassie Brilliant Blue R.
# The above procedure was repeated with solutions of fumaryl bis(methyl phosphate) at concentrations of 0.3 mM, 3.0 mM and 30 mM; 3,3'stilbene dicarboxylic acid bis(methyl phosphate) at a concentration of 30 mM and methyl acetyl phosphate at a concentration of 0.6M.
# [2] = Solution stability (hydrolysis followed by 31P NMR) of bis(methyl acyl phosphates) in tris-HCl buffer; type: physicochemical; settings: 0.100M tris-HCl buffer, pH 7.4, 37° C.; for half-life: 0.1 m tris-hcl buffer, 31P NMR
# Experimental: The solution stability of the bis(methyl acyl phosphates) was examined. The hydrolysis of fumaryl bis(sodium methyl phosphate), stilbene 3,3'dicarboxylic acid bis(sodium methyl phosphate) and stilbene 4,4'dicarboxylic acid bis(sodium methyl phosphate) in 0.100M tris-HCL buffer, pH 7.4, 37° C., were followed by integrating signals for the reactant and the phosphorus-containing product, methyl phosphate, in the ^31 P NMR spectrum. Production of methyl phosphate was observed as an indication of hydrolysis or of acylation of the buffer. […] The half life of the 3,3'stilbene derivative, was 100 hours. […] This is in agreement with earlier reports of the reactivity of acyl phosphate esters (Disabato, G.; Jencks, W. P., J. Am. Chem. Soc. 1961, 83, 4393, 4400).
# [3] = target: carbonmonoxyhemoglobin (COHb) (Homo sapiens, UniProt P68871+P69905); assay: Reaction of FMP with carbonmonoxyhemoglobin, conversion by anion exchange chromatography; type: biochemical
# Sequence of carbonmonoxyhemoglobin (COHb) (P69905 2-142 limits assumed): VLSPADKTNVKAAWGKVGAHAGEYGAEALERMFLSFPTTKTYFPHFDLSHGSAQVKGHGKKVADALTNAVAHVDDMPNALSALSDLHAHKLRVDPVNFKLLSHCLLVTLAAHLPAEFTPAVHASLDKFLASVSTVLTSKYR
# Sequence of carbonmonoxyhemoglobin (COHb) (P68871 2-147 limits assumed): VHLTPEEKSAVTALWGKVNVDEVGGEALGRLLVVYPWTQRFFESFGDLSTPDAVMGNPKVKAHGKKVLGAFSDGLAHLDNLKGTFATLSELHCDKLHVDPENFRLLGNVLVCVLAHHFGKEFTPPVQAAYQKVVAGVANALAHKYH
# Experimental: The effect of pH, type of buffer, and ligand state of the cross-linked hemoglobin was examined for the reaction of fumaryl bis(methyl phosphate) (FMP) with hemoglobin.
# ethanesulphonic acid]at pH 7.5, 35°, for 2 hours. Over the range of pH from 6.8 to 7.5, the greatest reaction between COHb and FMP was obtained at the pH of 7.2 in bisTris. The reaction at pH 7.2, . […] A second peak of reacted material observed by anion exchange chromatography increased over 3 hours from 14% at 10 minutes to about 30% by 3 hours.
# human hemoglobin [4] = assay: Cross-linking site of the reaction with hemoglobin; type: biochemical
# Description: Structural characterization of the major and some minor modified hemoglobins that result form reacting deoxyHb and COHb with FMP were made by isolating single hemoglobin components wherever possible. The initial separation was made on a preparative size Synchropak AX300 anion exchange column. Further purification was obtained by rechromatography of anion exchange zones containing mixtures of hemoglobins on a preparative size Synchropak CM300 cation exchange column. Zones from cation exchange rechromatography were then subjected to globin chain separation using Vydak C-4 large pore reverse phase columns. In some cases, this was sufficient for identification of the unmodified globin chains. In most cases the globin chain was isolated, treated by oxidations or aminoethylation to stabilize the zysteinyl residues, hydrolyzed with trypsin and glu-C proteonase and the resultant peptides were separated and analyzed for amino acid composition. Table II lists the components isolated and the structural modifications identified for the FMP treated hemoglobin.
# The number, chromatographic elution positions, and amounts of products of hemoglobin reacted with FMP varies with the ligand state of the hemoglobin and with the presence or absence of 2,3-DPG (2,3, diphosphoglycerate). FIG. 1 is an artion exchange HPLC chromatogram of the reaction mixture after treatment of deoxyhemoglobin with FMP. […]
smiles,measurement,setting,value
"COP(=O)(O)OC(=O)c1cccc(/C=C/c2cccc(C(=O)OP(=O)(O)OC)c2)c1 [Stilbene 3,3'-dicarboxylic acid bis(sodiummethyl phosphate)]",species produced by reaction with hemoglobin (SDS gel electrophoresis),human hemoglobin [1],dimeric and tetrameric species
same,half-life,[2],100 h
"COP(=O)(O)OC(=O)c1ccc(/C=C/c2ccc(C(=O)OP(=O)(O)OC)cc2)cc1 [Stilbene 4,4'-dicarboxylic acid bis(sodiummethyl phosphate)]",species produced by reaction with hemoglobin (SDS gel electrophoresis),human hemoglobin [1],dimeric and tetrameric species
same,change observed in the 31P NMR spectrum,[2]; followed for nine hours,no change observed in the spectrum
"COP(=O)(O)OC(=O)/C=C/C(=O)OP(=O)(O)OC [fumaryl bis(methyl phosphate), Fumaryl bis(sodium methyl phosphate)]",species produced by reaction with hemoglobin (SDS gel electrophoresis),human hemoglobin [1],dimeric and tetrameric species
same,conversion of the hemoglobin to fumaryl derivatives,"[3]; 1 mM COHb, 2 mM FMP, pH 7.2, 35°, 2 hours",about 75%
same,second peak of reacted material,"[3]; 1 mM COHb, 2 mM FMP, pH 7.2, 35°, at 10 minutes",14%
same,"major modified component, percent of total hemoglobin","[3]; 1 mM COHb, 2 mM FMP, pH 7.2, 35°, by 10 minutes",approximately 35%
same,second peak of reacted material,"[3]; 1 mM COHb, 2 mM FMP, pH 7.2, 35°, by 3 hours",about 30%
same,effect of buffer on amounts or varieties of reaction products,"[3]; COHb, bisTris compared to HEPES, pH 7.5, 35°, 2 hours",No significant differences
same,pH of greatest reaction between COHb and FMP,"[3]; pH range 6.8 to 7.5, bisTris",7.2
same,cross-links formed in hemoglobin,"human hemoglobin [4]; absence of 2,3-diphosphoglycerate",cross-linked between β subunits (val-1 to lys-82) and between the same residues in a single β subunit as well as a cross-link between α subunits between lys-99 in each subunit; also recorded: cross-linked between β subunits (val-1 to lys-82) and between the same residues in a single β subunit as well as crosslinked between α subunits between lys-99 in each subunit
same,cross-linking site of reaction,human hemoglobin [4]; human hemoglobin,"the highly cationic site which binds 2,3-diphosphoglycerate"
same,half-life,[2],36 h
"O=C(O)c1cccc(C=Cc2cccc(C(=O)O)c2)c1 [stilbene 3,3'-dicarboxylic acid, Stilbene 3,3'-dicarboxylic acid, reference compound]",species produced by reaction with hemoglobin (SDS gel electrophoresis),human hemoglobin [1],monomeric
